Experimental data published in US5674979A, “Agent for inhibiting symmetrical proteins, in particular enzymes” (priority 1989, dated 1997).
Read-outs that look alike come from different tables or passages of the source. Non-standard residues stand in square brackets, D forms with d. Residues, ends and D or L forms follow the SMILES beside them.

Assays:
HIV-1 [1] = conditions: H9 cells
Experimental: Compounds (a), (b), (c), (d) were tested in the molarity range from 0.1 μM to 1000 μM. Infectivity tests were carried out as follows: an HIV-1 suspension containing 10^2 infectious units was absorbed on to 5×10^6 H9 cells in a volume of 1 ml for 2 hours at 4° C. After this time, 9 ml of tissue culture medium with the required inhibitor concentration was added. The medium was exchanged with fresh medium plus inhibitor daily. Two control cultures were also prepared, one without inhibitor to determine the normal virus replication rate, the other containing inhibitor but no virus, to determine whether the substances were cytotoxic for H9 cells. […] The amount of virus antigen produced by the infected cells was measured daily using Elisa for eight days, indicating the amount of HIV-1 antigen in the tissue culture medium. After this, the cells were pelleted, washed in medium without inhibitor, and further incubated in inhibitor-less medium. The antigen production was measured on days 9 and 12 (ie 1 and […] after removal of the inhibitor). Virus production was also measured on days 7, 8, 9, and 12 by determining the amount of reverse transcriptase in the supernatant of the cell medium.

HIV-1 [2] = test system: HIV-1
[3] = 0,1 μM, day 9 post infection, no inhibitor (after removal)
[4] = 0,1 μM, day 12 post infection, no inhibitor (after removal)
[5] = 1 μM, day 9 post infection, no inhibitor (after removal)
[6] = 1 μM, day 12 post infection, no inhibitor (after removal)
[7] = 10 μM, day 9 post infection, no inhibitor (after removal)
[8] = 10 μM, day 12 post infection, no inhibitor (after removal)
[9] = 100 μM, day 9 post infection, no inhibitor (after removal)
[10] = 100 μM, day 12 post infection, no inhibitor (after removal)
[11] = 1000 μM, day 9 post infection, no inhibitor (after removal)
[12] = 1000 μM, day 12 post infection, no inhibitor (after removal)

CC(C)C[C@@H](NC(=O)[C@H](N)CC(N)=O)C(=O)N[C@@H](C(=O)NCC(=O)O)[C@H](C)O [A, H-(D)-Asn-(D)-Leu-(D)-Thr-Gly-OH] (H-[dN][dL][dT]G-OH) was tested. Which “HIV-1 antigen production as measured in antigen capture ELISA” value (from here on “HIV-1 antigen production as measured”) (HIV-1 [1]; 0,1 μM, day 1 post infection) did it give?
Its value is 0,060 o. D.

What about the “HIV-1 antigen production as measured” value (HIV-1 [1]; 0,1 μM, day 2 post infection) of the same compound?
The value was 0,066 o. D.

What about the “HIV-1 antigen production as measured” value (HIV-1 [1]; 0,1 μM, day 3 post infection) of the same compound?
Its value is 0,062 o. D.

And the “HIV-1 antigen production as measured” value (HIV-1 [1]; 0,1 μM, day 4 post infection)?
Its value is 0,055 o. D.

And the “HIV-1 antigen production as measured” value (HIV-1 [1]; 0,1 μM, day 5 post infection)?
Its value is 0,058 o. D.

And the “HIV-1 antigen production as measured” value (HIV-1 [1]; 0,1 μM, day 6 post infection)?
The value was 0,181 o. D.

What about the “HIV-1 antigen production as measured” value (HIV-1 [1]; 0,1 μM, day 7 post infection) of the same compound?
Its value is 0,363 o. D.

What about the “HIV-1 antigen production as measured” value (HIV-1 [1]; 0,1 μM, day 8 post infection) of the same compound?
The value was 0,478 o. D.

And the “HIV-1 antigen production as measured” value (HIV-1 [1]; [3])?
The value was 0,737 o. D.

And the “HIV-1 antigen production as measured” value (HIV-1 [1]; [4])?
The value was 1,037 o. D.

And the “HIV-1 antigen production as measured” value (HIV-1 [1]; 1 μM, day 1 post infection)?
Its value is 0,064 o. D.

What about the “HIV-1 antigen production as measured” value (HIV-1 [1]; 1 μM, day 2 post infection) of the same compound?
The value was 0,060 o. D.

What about the “HIV-1 antigen production as measured” value (HIV-1 [1]; 1 μM, day 3 post infection) of the same compound?
Its value is 0,075 o. D.

What about the “HIV-1 antigen production as measured” value (HIV-1 [1]; 1 μM, day 4 post infection) of the same compound?
The value was 0,057 o. D.

And the “HIV-1 antigen production as measured” value (HIV-1 [1]; 1 μM, day 5 post infection)?
The value was 0,053 o. D.

And the “HIV-1 antigen production as measured” value (HIV-1 [1]; 1 μM, day 6 post infection)?
Its value is 0,136 o. D.

What about the “HIV-1 antigen production as measured” value (HIV-1 [1]; 1 μM, day 7 post infection) of the same compound?
The value was 0,213 o. D.

What about the “HIV-1 antigen production as measured” value (HIV-1 [1]; 1 μM, day 8 post infection) of the same compound?
Its value is 0,394 o. D.

And the “HIV-1 antigen production as measured” value (HIV-1 [1]; [5])?
Its value is 0,694 o. D.

What about the “HIV-1 antigen production as measured” value (HIV-1 [1]; [6]) of the same compound?
The value was 1,065 o. D.

And the “HIV-1 antigen production as measured” value (HIV-1 [1]; 10 μM, day 1 post infection)?
The value was 0,061 o. D.

And the “HIV-1 antigen production as measured” value (HIV-1 [1]; 10 μM, day 2 post infection)?
Its value is 0,075 o. D.

What about the “HIV-1 antigen production as measured” value (HIV-1 [1]; 10 μM, day 3 post infection) of the same compound?
Its value is 0,069 o. D.

And the “HIV-1 antigen production as measured” value (HIV-1 [1]; 10 μM, day 4 post infection)?
Its value is 0,044 o. D.

And the “HIV-1 antigen production as measured” value (HIV-1 [1]; 10 μM, day 5 post infection)?
Its value is 0,064 o. D.

And the “HIV-1 antigen production as measured” value (HIV-1 [1]; 10 μM, day 6 post infection)?
The value was 0,140 o. D.

What about the “HIV-1 antigen production as measured” value (HIV-1 [1]; 10 μM, day 7 post infection) of the same compound?
The value was 0,256 o. D.

And the “HIV-1 antigen production as measured” value (HIV-1 [1]; 10 μM, day 8 post infection)?
Its value is 0,499 o. D.

What about the “HIV-1 antigen production as measured” value (HIV-1 [1]; [7]) of the same compound?
The value was 0,727 o. D.

What about the “HIV-1 antigen production as measured” value (HIV-1 [1]; [8]) of the same compound?
The value was 1,003 o. D.

What about the “HIV-1 antigen production as measured” value (HIV-1 [1]; 100 μM, day 1 post infection) of the same compound?
Its value is 0,068 o. D.

What about the “HIV-1 antigen production as measured” value (HIV-1 [1]; 100 μM, day 2 post infection) of the same compound?
The value was 0,064 o. D.

What about the “HIV-1 antigen production as measured” value (HIV-1 [1]; 100 μM, day 3 post infection) of the same compound?
The value was 0,065 o. D.

What about the “HIV-1 antigen production as measured” value (HIV-1 [1]; 100 μM, day 4 post infection) of the same compound?
The value was 0,053 o. D.

And the “HIV-1 antigen production as measured” value (HIV-1 [1]; 100 μM, day 5 post infection)?
Its value is 0,057 o. D.

What about the “HIV-1 antigen production as measured” value (HIV-1 [1]; 100 μM, day 6 post infection) of the same compound?
The value was 0,070 o. D.

What about the “HIV-1 antigen production as measured” value (HIV-1 [1]; 100 μM, day 7 post infection) of the same compound?
The value was 0,361 o. D.

And the “HIV-1 antigen production as measured” value (HIV-1 [1]; 100 μM, day 8 post infection)?
The value was 0,374 o. D.

What about the “HIV-1 antigen production as measured” value (HIV-1 [1]; [9]) of the same compound?
Its value is 0,915 o. D.

And the “HIV-1 antigen production as measured” value (HIV-1 [1]; [10])?
Its value is 1,013 o. D.

And the “HIV-1 antigen production as measured” value (HIV-1 [1]; 1000 μM, day 1 post infection)?
The value was 0,087 o. D.

And the “HIV-1 antigen production as measured” value (HIV-1 [1]; 1000 μM, day 2 post infection)?
Its value is 0,058 o. D.

And the “HIV-1 antigen production as measured” value (HIV-1 [1]; 1000 μM, day 3 post infection)?
The value was 0,073 o. D.

What about the “HIV-1 antigen production as measured” value (HIV-1 [1]; 1000 μM, day 4 post infection) of the same compound?
The value was 0,054 o. D.

And the “HIV-1 antigen production as measured” value (HIV-1 [1]; 1000 μM, day 5 post infection)?
Its value is 0,056 o. D.

And the “HIV-1 antigen production as measured” value (HIV-1 [1]; 1000 μM, day 6 post infection)?
The value was 0,102 o. D.

And the “HIV-1 antigen production as measured” value (HIV-1 [1]; 1000 μM, day 7 post infection)?
The value was 0,286 o. D.

And the “HIV-1 antigen production as measured” value (HIV-1 [1]; 1000 μM, day 8 post infection)?
Its value is 0,597 o. D.

And the “HIV-1 antigen production as measured” value (HIV-1 [1]; [11])?
Its value is 0,899 o. D.

What about the “HIV-1 antigen production as measured” value (HIV-1 [1]; [12]) of the same compound?
The value was 1,054 o. D.

And the “Reverse Transkriptase Determination” value (HIV-1 [2]; 0,1 μM, day 7 post infection)?
Its value is 3929 epm/ml.

What about the “Reverse Transkriptase Determination” value (HIV-1 [2]; 0,1 μM, day 8 post infection) of the same compound?
Its value is 6914 epm/ml.

And the “Reverse Transkriptase Determination” value (HIV-1 [2]; [3])?
The value was 14455 epm/ml.

And the “Reverse Transkriptase Determination” value (HIV-1 [2]; [4])?
Its value is 137470 epm/ml.

And the “Reverse Transkriptase Determination” value (HIV-1 [2]; 1 μM, day 7 post infection)?
The value was 4041 epm/ml.

What about the “Reverse Transkriptase Determination” value (HIV-1 [2]; 1 μM, day 8 post infection) of the same compound?
Its value is 7460 epm/ml.

And the “Reverse Transkriptase Determination” value (HIV-1 [2]; [5])?
Its value is 9502 epm/ml.

What about the “Reverse Transkriptase Determination” value (HIV-1 [2]; [6]) of the same compound?
The value was 163130 epm/ml.

And the “Reverse Transkriptase Determination” value (HIV-1 [2]; 10 μM, day 7 post infection)?
Its value is 4615 epm/ml.

What about the “Reverse Transkriptase Determination” value (HIV-1 [2]; 10 μM, day 8 post infection) of the same compound?
The value was 5381 epm/ml.

And the “Reverse Transkriptase Determination” value (HIV-1 [2]; [7])?
Its value is 12517 epm/ml.

What about the “Reverse Transkriptase Determination” value (HIV-1 [2]; [8]) of the same compound?
The value was 117910 epm/ml.

What about the “Reverse Transkriptase Determination” value (HIV-1 [2]; 100 μM, day 7 post infection) of the same compound?
Its value is 5378 epm/ml.

What about the “Reverse Transkriptase Determination” value (HIV-1 [2]; 100 μM, day 8 post infection) of the same compound?
The value was 6407 epm/ml.

And the “Reverse Transkriptase Determination” value (HIV-1 [2]; [9])?
Its value is 12893 epm/ml.

And the “Reverse Transkriptase Determination” value (HIV-1 [2]; [10])?
The value was 142240 epm/ml.

And the “Reverse Transkriptase Determination” value (HIV-1 [2]; 1000 μM, day 7 post infection)?
Its value is 1529 epm/ml.

What about the “Reverse Transkriptase Determination” value (HIV-1 [2]; 1000 μM, day 8 post infection) of the same compound?
The value was 2121 epm/ml.

What about the “Reverse Transkriptase Determination” value (HIV-1 [2]; [11]) of the same compound?
The value was 1550 epm/ml.

What about the “Reverse Transkriptase Determination” value (HIV-1 [2]; [12]) of the same compound?
Its value is 104660 epm/ml.
